Source: patent US10072025B2, “Ethyl N-boc piperidinyl pyrazolo pyridones as Janus kinase inhibitors” (Merck Sharp & Dohme Corp., priority 2014, dated 2018)

Assays:
JAK1 = JAK1 (Homo sapiens (Human), UniProt P23458); assay: Jak Biochemical HTRF Assay (JAK1); settings: recombinant purified GST-tagged catalytic domain; HTRF; [ATP] 31.8 μM; [E] 1.405 nM
Protocol: (§1) Jak Biochemical HTRF Assay Protocol
(§2) The ability of compounds to inhibit the activity of JAK1, JAK2, JAK3, and Tyk2 was measured using a recombinant purified GST-tagged catalytic domain for each enzyme (Invitrogen JAK1 #M4290, JAK2 #M4290, JAK3 #M4290, Tyk2 #M4290) in an HTRF format biochemical assay. […] The basic assay protocol is as follows: First, 250 nL of diluted compounds in DMSO were dispensed into the wells of a dry 384-well Black plate (Greiner #781076) using a Labcyte Echo 555 acoustic dispenser. Subsequent reagent additions employed an Agilent Bravo. Next, 18 μL of 1.11× enzyme and 1.11× substrate in 1× assay buffer (Invitrogen kinase buffer # PV3189, 2 mM DTT, 0.05% BSA) were added to the wells and shaken and then preincubated for 30 minutes at room temperature to allow compound binding to equilibrate. After equilibration, 2 μL of 10×ATP in 1× assay buffer was added to initiate the kinase reaction and the plates were shaken and then incubated at room temperature for 120 minutes. At the end of the incubation, 20 μL of 2× stop buffer (streptavidin-Dylight 650 (Thermo #84547B/100 mL), Eu-tagged pY20 antibody (Perkin Elmer #AD0067), EDTA, HEPES, and Triton) was added to quench the reaction. Plates were shaken and centrifuged and then incubated 60 minutes at room temperature and then read on a Perkin Elmer Envision (Xex=337 nm, λem=665 and 615 nm, TRF delay time=20 μs). HTRF signal=10,000*665 nm reading/615 nm reading. After normalization to untreated controls, the percent inhibition of the HTRF signal at each compound concentration was calculated. The plot of percent inhibition versus the log of compound concentration was fit with a 4-parameter dose response equation to calculate IC50 values.

JAK2 = JAK2 (Homo sapiens (Human), UniProt O60674); assay: Jak Biochemical HTRF Assay (JAK2); settings: recombinant purified GST-tagged catalytic domain, [ATP] 8.5 μM, [E] 0.052 nM
Protocol: as §1, §2

Chain of JAK1 (P23458 875-1153): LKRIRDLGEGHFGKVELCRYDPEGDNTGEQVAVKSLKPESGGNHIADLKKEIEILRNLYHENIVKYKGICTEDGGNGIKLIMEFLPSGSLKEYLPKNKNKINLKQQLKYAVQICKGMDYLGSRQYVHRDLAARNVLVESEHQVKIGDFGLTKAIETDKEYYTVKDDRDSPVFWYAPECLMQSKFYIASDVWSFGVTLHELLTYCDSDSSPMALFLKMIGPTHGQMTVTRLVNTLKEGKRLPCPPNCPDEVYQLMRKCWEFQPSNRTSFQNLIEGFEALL
Chain of JAK2 (O60674 849-1124): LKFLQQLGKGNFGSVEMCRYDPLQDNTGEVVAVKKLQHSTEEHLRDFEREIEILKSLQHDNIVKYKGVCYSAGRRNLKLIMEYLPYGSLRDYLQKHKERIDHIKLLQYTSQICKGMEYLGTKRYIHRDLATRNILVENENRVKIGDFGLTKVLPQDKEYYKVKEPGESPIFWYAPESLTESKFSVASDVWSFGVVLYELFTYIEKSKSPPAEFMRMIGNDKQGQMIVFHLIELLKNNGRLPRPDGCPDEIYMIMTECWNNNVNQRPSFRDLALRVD

## CCC1(n2nc(Nc3ccc(C(=O)N4CCCOCC4)c(C)c3)c3c(=O)[nH]ccc32)CCN(C(=O)OC(C)(C)C)CC1 [Example 3-10, tert-butyl 4-ethyl-4-(3-{[3-methyl-4-(1,4-oxazepan-4-ylcarbonyl)phenyl]amino}-4-oxo-4,5-dihydro-1H-pyrazolo[4,3-c]pyridin-1-yl) piperidine-1-carboxylate]
JAK1
  IC50: 0.29 nM
JAK2
  IC50: 0.43 nM

## CCC1(n2nc(Nc3ccc(C(=O)N4CCO[C@@H](C)C4)c(C)c3)c3c(=O)[nH]ccc32)CCN(C(=O)OC(C)(C)C)CC1 [Example 2-8, (5)-tert-butyl-4-ethyl-4-(3-(3-methyl-4-(2-methylmorpholine-4-carbonyl)phenylamino)-4-oxo-4,5-dihydropyrazolo[4,3-c]pyridin-1-yl) piperidine-1-carboxylate]
JAK1
  IC50: 0.62 nM
JAK2
  IC50: 0.57 nM

## CCC1(n2nc(Nc3ccc4c(c3)CN(C3CCN(C)CC3)S4(=O)=O)c3c(=O)[nH]ccc32)CCN(C(=O)OC(C)(C)C)CC1 [Example 2-30, tert-butyl 4-ethyl-4-(3-((2-(1-methylpiperidin-4-yl)-1,1-dioxido-2,3-dihydrobenzo [d]isothiazol-5-yl)amino)-4-oxo-4,5-dihydro-1H-pyrazolo [4,3-c]pyridin-1-yl) piperidine-1-carboxylate]
JAK1
  IC50: 0.29 nM
JAK2
  IC50: 0.36 nM

## CCC1(n2nc(Nc3ccc(C(=O)N4C[C@H]5C[C@@H]4CO5)c(C)c3)c3c(=O)[nH]ccc32)CCN(C(=O)OC(C)(C)C)CC1 [Example 2-15, tert-butyl 4-(3-((4-((1R,4R)-2-oxa-5-azabicyclo[2.2.1]heptane-5-carbonyl)-3-methylphenyl)amino)-4-oxo-4,5-dihydro-1H-pyrazolo[4,3-c]pyridin-1-yl)-4-ethylpiperidine-1-carboxylate]
JAK1
  IC50: 0.4 nM
JAK2
  IC50: 0.43 nM

## CCC1(n2nc(Nc3ccc(C(=O)N4CCOCC4)c(F)c3)c3c(=O)[nH]ccc32)CCN(C(=O)OC(C)(C)C)CC1 [Example 2-12, tert-butyl 4-ethyl-4-(3-((3-fluoro-4-(morpholine-4-carbonyl)phenyl)amino)-4-oxo-4,5-dihydro-1H-pyrazolo[4,3-c]pyridin-1-yl) piperidine-1-carboxylate]
JAK1
  IC50: 0.56 nM
JAK2
  IC50: 0.74 nM

## CCC1(n2nc(Nc3ccc(C(=O)N4CCOC(=O)C4)c(C)c3)c3c(=O)[nH]ccc32)CCN(C(=O)OC(C)(C)C)CC1 [Example 3-1, tert-butyl-4-ethyl-4-(3-((3-methyl-4-(2-oxomorpholine-4-carbonyl)phenyl)amino)-4-oxo-4,5-dihydro-1H-pyrazolo[4,3-c]pyridin-1-yl)piperidine-1-carboxylate]
JAK1
  IC50: 0.25 nM
JAK2
  IC50: 0.8 nM

## CCC1(n2nc(Nc3ccc([C@]4(C(F)(F)F)CCCN4)cc3)c3c(=O)[nH]ccc32)CCN(C(=O)OC(C)(C)C)CC1 (single isomer, unassigned) [Example 2-35, (S or R)-tert-butyl 4-ethyl-4-(4-oxo-3-(4-(2-(trifluoromethyl)pyrrolidin-2-yl)phenylamino)-4,5-dihydropyrazolo[4,3-c]pyridin-1-yl) piperidine-1-carboxylate]
JAK1
  IC50: 2.82 nM
JAK2
  IC50: 3.55 nM

## CCC1(n2nc(Nc3ccc(C4CCN(C)CC4)cc3)c3c(=O)[nH]ccc32)CCN(C(=O)OC(C)(C)C)CC1 [Example 2-4, tert-butyl 4-ethyl-4-(3-(4-(1-methylpiperidin-4-yl)phenylamino)-4-oxo-4,5-dihydropyrazolo[4,3-c]pyridin-1-yl) piperidine-1-carboxylate]
JAK1
  IC50: 0.37 nM
JAK2
  IC50: 0.56 nM

## CCC1(n2nc(Nc3ccc(C(C)(O)C(F)(F)F)cc3)c3c(=O)[nH]ccc32)CCN(C(=O)OC(C)(C)C)CC1 (stereo not drawn) [Example 2-42, tert-butyl 4-ethyl-4-(4-oxo-3-((4-(1,1,1-trifluoro-2-hydroxypropan-2-yl)phenyl)amino)-4,5-dihydro-1H-pyrazolo[4,3-c]pyridin-1-yl) piperidine-1-carboxylate]
JAK1
  IC50: 1.65 nM
JAK2
  IC50: 4.62 nM

## CCC1(n2nc(Nc3ccc(C(=O)N4CCO[C@H](C)C4)c(C)c3)c3c(=O)[nH]ccc32)CCN(C(=O)OC(C)(C)C)CC1 [Example 2-7, (R)-tert-butyl-4-ethyl-4-(3-(3-methyl-4-(2-methylmorpholine-4-carbonyl)phenylamino)-4-oxo-4,5-dihydropyrazolo[4,3-c]pyridin-1-yl) piperidine-1-carboxylate]
JAK1
  IC50: 0.72 nM
JAK2
  IC50: 0.6 nM

## CCC1(n2nc(Nc3ccc(C4CCNCC4)cc3)c3c(=O)[nH]ccc32)CCN(C(=O)OC(C)(C)C)CC1 [Example 2-23, tert-butyl 4-ethyl-4-(4-oxo-3-(4-(piperidin-4-yl)phenylamino)-4,5-dihydropyrazolo[4,3-c]pyridin-1-yl) piperidine-1-carboxylate]
JAK1
  IC50: 1.13 nM
JAK2
  IC50: 1.92 nM

## CCC1(n2nc(Nc3ccc(C(C)(OC)C(F)(F)F)cc3)c3c(=O)[nH]ccc32)CCN(C(=O)OC(C)(C)C)CC1 (stereo not drawn) [Example 2-41]
JAK1
  IC50: 4.4 nM
JAK2
  IC50: 6.87 nM

## CCC1(n2nc(Nc3ccc(C(=O)N4CCSCC4)c(C(F)F)c3)c3c(=O)[nH]ccc32)CCN(C(=O)OC(C)(C)C)CC1 [Example 2-25, tert-butyl 4-(3-(3-(difluoromethyl)-4-(thiomorpholine-4-carbonyl)phenylamino)-4-oxo-4,5-dihydropyrazolo[4,3-c]pyridin-1-yl)-4-ethylpiperidine-1-carboxylate]
JAK1
  IC50: 1.73 nM
JAK2
  IC50: 2.8 nM

## CCC1(n2nc(Nc3ccc(C(=O)N4CC[S+]([O-])CC4)c(C)c3)c3c(=O)[nH]ccc32)CCN(C(=O)OC(C)(C)C)CC1 [Example 3-11, tert-butyl 4-ethyl-4-[3-({3-methyl-4-[(1-oxidothiomorpholin-4-yl)carbonyl]phenyl}amino)-4-oxo-4,5-dihydro-1H-pyrazolo[4,3-c]pyridin-1-yl]piperidine-1-carboxylate]
JAK1
  IC50: 0.19 nM
JAK2
  IC50: 0.25 nM

## CCC1(n2nc(Nc3ccc(C(=O)N4CCOC[C@H]4C)c(C)c3)c3c(=O)[nH]ccc32)CCN(C(=O)OC(C)(C)C)CC1 [Example 2-28, (R)-tert-butyl-4-ethyl-4-(3-(3-methyl-4-(3-methylmorpholine-4-carbonyl)phenylamino)-4-oxo-4,5-dihydropyrazolo[4,3-c]pyridin-1-yl) piperidine-1-carboxylate]
JAK1
  IC50: 0.54 nM
JAK2
  IC50: 0.51 nM

## CCC1(n2nc(Nc3ccc(C(=O)N4C[C@@H]5C[C@H]4CO5)c(C)c3)c3c(=O)[nH]ccc32)CCN(C(=O)OC(C)(C)C)CC1 [Example 2-22, tert-butyl 4-(3-(4-((1S,4S)-5-oxa-2-aza-bicyclo[2.2.1]heptane-2-carbonyl)-3-methylphenylamino)-4-oxo-4,5-dihydropyrazolo[4,3-c]pyridin-1-yl)-4-ethylpiperidine-1-carboxylate]
JAK1
  IC50: 0.36 nM
JAK2
  IC50: 0.44 nM

## CCC1(n2nc(Nc3ccc(C(=O)N4CC5(COC5)C4)c(C)c3)c3c(=O)[nH]ccc32)CCN(C(=O)OC(C)(C)C)CC1 [Example 2-14, tert-butyl 4-ethyl-4-(3-((3-methyl-4-(2-oxa-6-azaspiro[3.3]heptane-6-carbonyl)phenyl)amino)-4-oxo-4,5-dihydro-1H-pyrazolo [4,3-c]pyridin-1-yl) piperidine-1-carboxylate]
JAK1
  IC50: 0.3 nM
JAK2
  IC50: 0.43 nM

## CCC1(n2nc(Nc3cccc(CC#N)c3)c3c(=O)[nH]ccc32)CCN(C(=O)OC(C)(C)C)CC1 [Example 2-17, tert-butyl 4-(3-((3-(cyanomethyl)phenyl)amino)-4-oxo-4,5-dihydro-1H-pyrazolo [4,3-c]pyridin-1-yl)-4-ethylpiperidine-1-carboxylate]
JAK1
  IC50: 0.53 nM
JAK2
  IC50: 3.37 nM

## CCC1(n2nc(Nc3ccc(C(=O)N4CCOC5CC54)c(C)c3)c3c(=O)[nH]ccc32)CCN(C(=O)OC(C)(C)C)CC1 (stereo not drawn) [Example 3-21, tert-butyl 4-ethyl-4-(3-{[3-methyl-4-(2-oxa-5-azabicyclo [4.1.0]hept-5-ylcarbonyl)phenyl]amino}-4-oxo-4,5-dihydro-1H-pyrazolo [4,3-c]pyridin-1-yl) piperidine-1-carboxylate]
JAK1
  IC50: 1.69 nM
JAK2
  IC50: 1.34 nM

## CCC1(n2nc(Nc3ccc(C(=O)N4CCCC4)c(C)c3)c3c(=O)[nH]ccc32)CCN(C(=O)OC(C)(C)C)CC1 [Example 2-33, tert-butyl 4-ethyl-4-(3-(3-methyl-4-(pyrrolidine-1-carbonyl)phenylamino)-4-oxo-4,5-dihydropyrazolo[4,3-c]pyridin-1-yl) piperidine-1-carboxylate]
JAK1
  IC50: 0.73 nM
JAK2
  IC50: 1.06 nM

## CCC1(n2nc(Nc3ccc4c(c3)CN(C3(C)CCC(F)(F)CC3)C4=O)c3c(=O)[nH]ccc32)CCN(C(=O)OC(C)(C)C)CC1 [Example 2-2, tert-butyl 4-(3-(2-(4,4-difluoro-1-methylcyclohexyl)-1-oxoisoindolin-5-ylamino)-4-oxo-4,5-dihydropyrazolo[4,3-c]pyridin-1-yl)-4-ethylpiperidine-1-carboxylate]
JAK1
  IC50: 3.21 nM
JAK2
  IC50: 3.16 nM
